Reference: patent publication US11666590B2, “Pharmaceutical composition, methods for treating and uses thereof” (Boehringer Ingelheim International GmbH, priority 2013, dated 2023)

Tests used:
[1] = Phase IIb trial of empagliflozin once daily over 78 weeks in patients with T2DM receiving basal insulin: eGFR (MDRD) over time; assay type: in vivo, human
Method: (§1) For the purpose of the present invention, the estimated glomerular filtration rate (eGFR) is derived from the serum creatinine (SCr) value based on the MDRD formula below: eGFR (mL/min/1.73m2)=175×[SCr (μmol/L)/88.4]-1.154×[age]-0.203×[0.742 if patient is female]×[1.212 if patient is of African origin]
A Phase IIb trial investigated the efficacy and safety of empagliflozin (EMPA 10 or 25 mg, placebo (PBO)) administered orally, once daily over 78 weeks in patients with T2DM receiving treatment with basal insulin (glargine, detemir, or NPH insulin only).

[2] = Phase III trial of empagliflozin once daily over 12 weeks in hypertensive patients with T2DM: eGFR (MDRD) over time; assay type: in vivo, human
Method: as §1
A Phase III trial investigated the efficacy and safety of empagliflozin (EMPA) administered orally, once daily over 12 weeks in hypertensive patients with T2DM (EMPA 10 or 25 mg, placebo (PBO)). Patients with a systolic blood pressure (SBP) of 130 to 159 mmHg and a diastolic blood pressure (DSP) of 80 to 99 mmHg were included in the trial.

[3] = 52 week renal impairment study: urine albumin/creatinine ratio (UACR) by baseline UACR category; assay type: in vivo, human; settings: for Frequency of patients, last value on-treatment Macroalbuminuria, % / Frequency of patients, last value on-treatment Microalbuminuria, % / Frequency of patients, last value on-treatment Normal, % / Urine albumin-to-creatinine ratio, change from baseline, Mean: week 52; for mean urine albumin/creatinine ratio values (in words): patients with microalbuminuria at baseline
Method: In a dedicated 52 week renal impairment study, patients were categorised based on their urine albumin/creatinine ratio (UACR) values at baseline, and 3 categories of patients were distinguished: patients with normal urine albumin/creatinine ratio values (<30 mg/g), patients with microalbuminuria (30 to<300 mg/g) and patients with macroalbuminurea (≥300 mg/g).
Categories for urine albumin-to-creatinine ratio: normal:<30 mg/g, microalbuminuria 30 to<300 mg/g, macroalbuminuria:≥300 mg/g

[4] = Phase III trial of empagliflozin as add-on to existing therapy for 52 weeks in patients with T2DM and renal impairment: eGFR (MDRD) over time; assay type: in vivo, human; settings: for End-of treatment eGFR Mean / End-of treatment eGFR Mean change from baseline / eGFR at week 52 (in words): week 52
Description: as §1
A Phase III trial investigated the efficacy and safety of empagliflozin (EMPA) as add-on to existing therapy for 52 weeks in patients with T2DM and RI. Patients with mild RI (eGFR [MDRD equation]≥60 to<90 mL/min/1.73 m^2) received EMPA 10 or 25 mg qd or placebo (PBO). Patients with moderate RI (eGFR≥30 to<60 mL/min/1.73 m^2) received EMPA 25 mg qd or PBO. Patients with severe RI (eGFR[…] to<30 mL/min/1.73 m^2) received EMPA 25 mg qd or PBO.

[5] = metformin on its own, in the diabetic; cited from earlier work
[6] = T2DM on basal insulin, Empa 10 mg once daily, 4-week follow up visit
[7] = T2DM on basal insulin, Empa 10 mg once daily
[8] = T2DM on basal insulin, Empa 25 mg once daily, 4-week follow up visit
[9] = T2DM on basal insulin, Empa 25 mg once daily
[10] = Empa 10 mg once daily, 2-week follow up visit
[11] = Empa 25 mg once daily, 2-week follow up visit
[12] = Empa 10 mg, baseline Macroalbuminuria
[13] = Empa 10 mg, baseline Microalbuminuria
[14] = Empa 10 mg, baseline UACR Normal
[15] = Empa 25 mg, baseline Macroalbuminuria
[16] = Empa 25 mg, baseline Microalbuminuria
[17] = Empa 25 mg, baseline UACR Normal
[18] = mild renal impairment, Empa 10 mg qd, 3-week follow up visit
[19] = mild renal impairment, Empa 10 mg qd
[20] = mild renal impairment, Empa 25 mg qd, 3-week follow up visit
[21] = mild renal impairment, Empa 25 mg qd
[22] = moderate renal impairment, Empa 25 mg qd, 3-week follow-up visit
[23] = moderate renal impairment, Empa 25 mg qd
[24] = severe renal impairment, Empa 25 mg qd, 3-week follow-up visit
[25] = severe renal impairment, Empa 25 mg qd

Structure (SMILES): OC[C@H]1O[C@@H](c2ccc(Cl)c(Cc3ccc(O[C@H]4CCOC4)cc3)c2)[C@H](O)[C@@H](O)[C@@H]1O [Empa, 1-chloro-4-(β-D-glucopyranos-1-yl)-244-((S)-tetrahydrofuran-3-yloxy)-benzylFbenzene]
- eGFR at follow-up Mean [1, 6]: 83.74
- eGFR at follow-up Mean change from baseline [1, 6]: −1.88
- Baseline eGFR Mean [1, 7]: 85.01
- Week 18 eGFR Mean [1, 7]: 80.37
- Week 18 eGFR Mean change from baseline [1, 7]: −4.98
- Week 54 eGFR Mean [1, 7]: 82.55
- Week 54 eGFR Mean change from baseline [1, 7]: −5.68
- Week 78 eGFR Mean [1, 7]: 81.86
- Week 78 eGFR Mean change from baseline [1, 7]: −5.52
- eGFR at follow-up Mean [1, 8]: 81.35
- eGFR at follow-up Mean change from baseline [1, 8]: −0.79
- Baseline eGFR Mean [1, 9]: 82.88
- Week 18 eGFR Mean [1, 9]: 79.11
- Week 18 eGFR Mean change from baseline [1, 9]: −3.48
- Week 54 eGFR Mean [1, 9]: 77.12
- Week 54 eGFR Mean change from baseline [1, 9]: −4.76
- Week 78 eGFR Mean [1, 9]: 77.21
- Week 78 eGFR Mean change from baseline [1, 9]: −5.64
- mean eGFR at follow up (in words) ([1]; T2DM on basal insulin, empagliflozin 10 and 25 mg, 4-week follow up visit): increased to a value slightly below baseline
- eGFR on treatment (in words) ([1]; empagliflozin 10 and 25 mg, 78 weeks): small decrease in eGFR
- Follow-up eGFR Mean [2, 10]: 86.25 mL/min/1.73 m^2
- Follow-up eGFR Mean change from baseline [2, 10]: 3.06 mL/min/1.73 m^2
- Follow-up eGFR Mean change from last value on treatment [2, 10]: 3.32 mL/min/1.73 m^2
- Baseline eGFR Mean ([2]; Empa 10 mg once daily): 83.01 mL/min/1.73 m^2
- Last value on treatment eGFR Mean ([2]; Empa 10 mg once daily, week 12): 82.70 mL/min/1.73 m^2
- Last value on treatment eGFR Mean change from baseline ([2]; Empa 10 mg once daily, week 12): −0.20 mL/min/1.73 m^2
- Follow-up eGFR Mean [2, 11]: 86.60 mL/min/1.73 m^2
- Follow-up eGFR Mean change from baseline [2, 11]: 2.75 mL/min/1.73 m^2
- Follow-up eGFR Mean change from last value on treatment [2, 11]: 5.54 mL/min/1.73 m^2
- Baseline eGFR Mean ([2]; Empa 25 mg once daily): 83.97 mL/min/1.73 m^2
- Last value on treatment eGFR Mean ([2]; Empa 25 mg once daily, week 12): 81.24 mL/min/1.73 m^2
- Last value on treatment eGFR Mean change from baseline ([2]; Empa 25 mg once daily, week 12): −2.60 mL/min/1.73 m^2
- mean eGFR at follow up (in words) ([2]; empagliflozin 10 and 25 mg, 2-week follow up visit): increased to a value slightly above baseline
- eGFR at week 12 (in words) ([2]; empagliflozin 10 and 25 mg, week 12): small decrease in eGFR
- Frequency of patients, last value on-treatment Macroalbuminuria, % [3, 12]: (33.3) %
- Frequency of patients, last value on-treatment Microalbuminuria, % [3, 12]: (55.6) %
- Frequency of patients, last value on-treatment Normal, % [3, 12]: (11.1) %
- Frequency of patients, last value on-treatment Macroalbuminuria, % [3, 13]: (11.1) %
- Frequency of patients, last value on-treatment Microalbuminuria, % [3, 13]: (61.1) %
- Frequency of patients, last value on-treatment Normal, % [3, 13]: (27.8) %
- Frequency of patients, last value on-treatment Microalbuminuria, % [3, 14]: (10.6) %
- Frequency of patients, last value on-treatment Normal, % [3, 14]: (89.4) %
- Frequency of patients, last value on-treatment Macroalbuminuria, % [3, 15]: (67.1) %
- Frequency of patients, last value on-treatment Microalbuminuria, % [3, 15]: (30.1) %
- Frequency of patients, last value on-treatment Normal, % [3, 15]: (2.7) %
- Frequency of patients, last value on-treatment Macroalbuminuria, % [3, 16]: (3.8) %
- Frequency of patients, last value on-treatment Microalbuminuria, % [3, 16]: (72.2) %
- Frequency of patients, last value on-treatment Normal, % [3, 16]: (24.1) %
- Frequency of patients, last value on-treatment Microalbuminuria, % [3, 17]: (10.6) %
- Frequency of patients, last value on-treatment Normal, % [3, 17]: (89.4) %
- Urine albumin-to-creatinine ratio, change from baseline, Mean ([3]; Empagliflozin 10 mg, patients Normal (<30 mg/g) at baseline): 4.0 mg/g
- Urine albumin-to-creatinine ratio, change from baseline, Mean ([3]; Empagliflozin 10 mg, patients with Macroalbuminuria at baseline): -716.3 mg/g
- Urine albumin-to-creatinine ratio, change from baseline, Mean ([3]; Empagliflozin 10 mg, patients with Microalbuminuria at baseline): 7.4 mg/g
- Urine albumin-to-creatinine ratio, change from baseline, Mean ([3]; Empagliflozin 25 mg, patients Normal (<30 mg/g) at baseline): 6.0 mg/g
- Urine albumin-to-creatinine ratio, change from baseline, Mean ([3]; Empagliflozin 25 mg, patients with Macroalbuminuria at baseline): -799.9 mg/g
- Urine albumin-to-creatinine ratio, change from baseline, Mean ([3]; Empagliflozin 25 mg, patients with Microalbuminuria at baseline): -39.4 mg/g
- Shifts between UACR categories from macro- or microalbuminuria towards normal and from macro- to microalbuminuria, versus placebo (in words) ([3]; baseline to end of treatment, empagliflozin treatment groups): higher frequency
- mean urine albumin/creatinine ratio (in words) ([3]; patients with macroalbuminuria at baseline, empagliflozin groups): decrease in mean urine albumin/creatinine ratio
- mean urine albumin/creatinine ratio values (in words) ([3]; empagliflozin 10 mg): remained nearly unchanged
- mean urine albumin/creatinine ratio values (in words) ([3]; empagliflozin 25 mg): decreased
- Follow-up eGFR Mean [4, 18]: 69.84 mL/min/1.73 m^2
- Follow-up eGFR Mean change from baseline [4, 18]: 2.06 mL/min/1.73 m^2
- Baseline eGFR Mean [4, 19]: 68.42 mL/min/1.73 m^2
- End-of treatment eGFR Mean [4, 19]: 68.07 mL/min/1.73 m^2
- End-of treatment eGFR Mean change from baseline [4, 19]: −0.76 mL/min/1.73 m^2
- Follow-up eGFR Mean [4, 20]: 73.38 mL/min/1.73 m^2
- Follow-up eGFR Mean change from baseline [4, 20]: 1.28 mL/min/1.73 m^2
- Baseline eGFR Mean [4, 21]: 72.01 mL/min/1.73 m^2
- End-of treatment eGFR Mean [4, 21]: 66.25 mL/min/1.73 m^2
- End-of treatment eGFR Mean change from baseline [4, 21]: −5.67 mL/min/1.73 m^2
- mean eGFR at follow up (in words) ([4]; mild renal impairment, empagliflozin 10 and 25 mg, 3-week follow up visit): increased to a value slightly above baseline
- eGFR at week 52 (in words) ([4]; mild renal impairment, empagliflozin 10 and 25 mg): small decrease in eGFR
- Follow-up eGFR Mean [4, 22]: 45.39 mL/min/1.73 m^2
- Follow-up eGFR Mean change from baseline [4, 22]: 1.48 mL/min/1.73 m^2
- Baseline eGFR Mean [4, 23]: 43.84 mL/min/1.73 m^2
- End-of treatment eGFR Mean [4, 23]: 40.58 mL/min/1.73 m^2
- End-of treatment eGFR Mean change from baseline [4, 23]: −3.55 mL/min/1.73 m^2
- mean eGFR at follow-up (in words) ([4]; moderate renal impairment, empagliflozin 25 mg, 3-week follow-up visit): increased to a value slightly above baseline
- eGFR at week 52 (in words) ([4]; moderate renal impairment, empagliflozin 25 mg): small decrease in eGFR
- Follow-up eGFR Mean [4, 24]: 23.63 mL/min/1.73 m^2
- Follow-up eGFR Mean change from baseline [4, 24]: −0.59 mL/min/1.73 m^2
- Baseline eGFR Mean [4, 25]: 24.22 mL/min/1.73 m^2
- End-of treatment eGFR Mean [4, 25]: 20.23 mL/min/1.73 m^2
- End-of treatment eGFR Mean change from baseline [4, 25]: −3.98 mL/min/1.73 m^2
- mean eGFR at follow-up (in words) ([4]; severe renal impairment, empagliflozin 25 mg, 3-week follow-up visit): increased to a value slightly below baseline
- eGFR at week 52 (in words) ([4]; severe renal impairment, empagliflozin 25 mg): small decrease in eGFR

Structure (SMILES): CN(C)C(=N)N=C(N)N [metformin]
- average improvement in the HbA1c value [5]: 1.0-1.5%
